Source: patent US12144864B2, “Tubulysins and protein-tubulysin conjugates” (Regeneron Pharmaceuticals, Inc., priority 2018, dated 2024)
Values joined by “and” are separate entries in the source; they are usually repeats but may differ in a detail not shown here. Equal entries are not always repeated. Where two headings read alike, the source gives them in different places. Non-standard residues stand in square brackets, D forms with d. Residues, ends and D or L forms follow the SMILES beside them. *: point of attachment. Dolaproine = CO[C@@H]([C@@H]1CCCN1)[C@@H](C)C(=O)O; Dil = CC[C@H](C)[C@H](NC)[C@@H](CC(=O)O)OC; X1 = C[C@@H](N*)[C@@H](O)c1ccccc1; NMeV = CN[C@H](C(=O)O)C(C)C

Key:
H69AR cells = assay: Cytotoxicity in panel of MDR cell lines, H69AR (72 h and 144 h); assay type: cell-based, human
Summary of the method: (§1)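 MDR lines (HCT-15; doxorubicin-resistant H69AR; mitoxantrone-resistant MES-SA/MX2 and HL60/MX2) seeded at 1000 cells/well in normal growth media, treated with 1:3 serially diluted payloads for 72 h and 144 h. Viability by CellTiter-Glo ATP luminescence; IC50 from four-parameter logistic fit of 10-point curves.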

HCT-15 cells = assay: Cytotoxicity in panel of MDR cell lines, HCT-15 (72 h and 144 h); assay type: cell-based, human
Summary of the method: as §1

C4-2 cells [1] = assay: Cytotoxicity of anti-STEAP2 ADCs, payloads and reference compounds in C4-2 cells; assay type: cell-based, human; conditions: for % kill: at maximum concentration tested; for IC50: top concentration 100 nM, 3-fold serial dilution
Description: (§2) To test the ability of the disclosed tubulysin payloads to kill human cell lines, an in vitro cytotoxicity assay was performed. In vitro cytotoxicity of the disclosed payloads, as well as reference compounds, were evaluated using the CellTiter-Glo Assay Kit (Promega, Cat #G7573), in which the quantity of ATP present is used to determine the number of viable cells in culture. For the assay, C4-2, HEK293, or T47D cells were seeded at 4000 cells/well on Nunclon white 96-well plates in complete growth medium (DME high glucose:Ham's F12 at 4:1, 10% FBS, 100 units/ml Penicillin, 100 ug/ml streptomycin, 53 ug/ml glutatmine, 10 ug/ml insulin, 220 ng/ml biotin, 12.5 pg/ml T3, 12.5 ug/ml Adenine, 4 ug/ml transferrin for C42 cells; DME high glucose, 10% FBS, 100 units/ml Penicillin, 100 ug/ml streptomycin, 53 ug/ml glutatmine for HEK293; RPMI, 10% FBS, 100 units/ml Penicillin, 100 ug/ml streptomycin, 53 ug/ml glutatmine, 10 ug/ml insulin, 10 mM HEPEs, 200 nM Sodium Pyruvate for T47D cells) and grown overnight at 37° C. in 5% CO2. For cell viability curves, 1:3 serially diluted payloads were added to the cells at final concentrations ranging from 100 nM to […], including a no treatment control group, and were then incubated for 5 days. After the 5-day incubation, cells were incubated at room temperature with 100 μL of CellTiter-Glo reagents for 10 minutes. Relative luminescence units (RLU) were determined on a Victor plate reader (PerkinElmer). The IC50 values were determined from a four-parameter logistic equation over a 10-point response curve (GraphPad Prism). All IC50 values are expressed in molar (M) concentration. The percent cell killing (% kill) at the maximum concentration tested was estimated from the following formula (100−% viable cells). Averages±standard deviation (SD) are included where replicate experiments were performed.
To further test the ability of the disclosed tubulysin payloads, reference compounds, and antibody drug conjugates using these payloads, a cytotoxicity assay was performed using C4-2 cells as described in this example (see above). For these studies, anti-STEAP2 antibodies were conjugated to select tubulysins payloads, and the compounds were tested at concentrations starting at 100 nM with 3-fold serial dilution. All IC50 values are expressed in nM concentration and the percent cell killing at the maximum concentration tested was estimated from the following formula (100−% viable cells).

MES-SA/MX2 cells = assay: Cytotoxicity in panel of MDR cell lines, MES-SA/MX2 (72 h and 144 h); assay type: cell-based, human
Summary of the method: as §1

HL60/MX2 cells = assay: Cytotoxicity in panel of MDR cell lines, HL60/MX2 (72 h and 144 h); assay type: cell-based, human
Summary of the method: as §1

HCT15 cells = assay: cells; assay type: cell-based, human; conditions: for HCT-15 + verapamil % Kill / IC50 / HCT-15 % Kill: HCT15 cells; for HCT-15 + verapamil % Kill / HCT-15 % Kill: maximum % cell killing
Summary of the method: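 HCT15 colorectal carcinoma cells, 1000 per well in RPMI/10% FBS, with or without 5 ug/mL verapamil, exposed to 1:3 serially diluted payloads for 5 days at 37 °C. Viability measured by CellTiter-Glo ATP luminescence; IC50 from four-parameter logistic fit of a 10-point curve, % kill at top concentration.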

C4-2 cells [2] = assay: Cell-based killing assay of payloads (CellTiter-Glo), C4-2 cells; parameters: species or system human; conditions: 5-day incubation; for IC50: average ± SD where replicates; for C4-2 % Kill: at maximum concentration tested (100 − % viable cells)
Summary of the method: (§3)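 Cells plated at 4000/well in line-specific complete medium, grown overnight, then exposed to 1:3 serial dilutions of payload (100 nM to […]) for 5 days. ATP-based CellTiter-Glo luminescence read; IC50 from four-parameter logistic 10-point fit, and % kill at top concentration as 100 − % viable.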

HEK293 cells = assay: Cell-based killing assay of payloads (CellTiter-Glo), HEK293 cells; parameters: species or system human; conditions: 5-day incubation
Summary of the method: as §3

T47D cells = assay: Cell-based killing assay of payloads (CellTiter-Glo), T47D cells; parameters: species or system human; conditions: 5-day incubation
Summary of the method: as §3

HCT15/PRLR cells = assay: Cytotoxicity of anti-PRLR tubulysin ADCs and payloads in HCT15/PRLR cells with or without Verapamil; assay type: cell-based, human; conditions: for IC50: Homo sapiens, HCT-15
Description: as §2
Bioassays were developed to assess the efficacy of an anti-PRLR antibody conjugated with the disclosed tubulysin payloads and reference payloads. It was developed to assess the activity of tubulysin payloads after internalization of an anti-PRLR-tubulysin ADC into cells, release of the payload, and subsequent cytotoxicity. For this assay, a HCT15 line was engineered to express human full length PRLR (accession #NP_000940.1). The resulting stable cell line is referred to herein as HCT15/PRLR. In vitro cytotoxicity of the disclosed payloads, reference compounds, and tested ADCs were evaluated similarly as described in this example using HCT15/PRLR cells with or without […] of Verapamil diluted in normal culture medium. The compounds were tested at concentrations starting at 100 nM with 3-fold serial dilution. All IC50 values are expressed in nM concentration and the percent cell killing (% kill) at the maximum concentration tested was estimated from the following formula (100−% viable cells).

[3] = with 5 ug/mL Verapamil, read-out: HCT-15 + verapamil IC50
[4] = at maximum concentration tested

CC[C@H](C)[C@@H]([C@@H](CC(=O)N1CCC[C@H]1[C@H](OC)[C@@H](C)C(=O)N[C@H](C)[C@@H](O)c1ccccc1)OC)N(C)C(=O)[C@@H](NC(=O)[C@@H](NC)C(C)C)C(C)C [MMAE, Monomethyl auristatin E, reference compound] (H-[NMeV]V[Dil][Dolaproine]-X1)
H69AR % Kill 72 h (H69AR cells; 72 h incubation): 66.8% | IC50 (H69AR cells; 72 h incubation, read-out: H69AR IC50 72 h): 0.923 nM | H69AR % Kill 144 h (H69AR cells; 144 h incubation): 92.7% | IC50 (H69AR cells; 144 h incubation, read-out: H69AR IC50 144 h): 0.683 nM | HCT-15 % Kill 72 h (HCT-15 cells; 72 h incubation): 93.7% | IC50 (HCT-15 cells; 72 h incubation, read-out: HCT-15 IC50 72 h): 16.8 nM | % kill (C4-2 cells [1]): 99% | IC50 (C4-2 cells [1]): 0.22 nM | MES-SA/MX2 % Kill 72 h (MES-SA/MX2 cells; 72 h incubation): 65.6% | IC50 (MES-SA/MX2 cells; 72 h incubation, read-out: MES-SA/MX2 IC50 72 h): 37.3 nM | MES-SA/MX2 % Kill 144 h (MES-SA/MX2 cells; 144 h incubation): 58.1% | IC50 (MES-SA/MX2 cells; 144 h incubation, read-out: MES-SA/MX2 IC50 144 h): 0.683 nM | HL60/MX2 % Kill 72 h (HL60/MX2 cells; 72 h incubation): 88.7% | IC50 (HL60/MX2 cells; 72 h incubation, read-out: HL60/MX2 IC50 72 h): 0.418 nM | HL60/MX2 % Kill 144 h (HL60/MX2 cells; 144 h incubation): 99.6% | IC50 (HL60/MX2 cells; 144 h incubation, read-out: HL60/MX2 IC50 144 h): 0.164 nM | HCT-15 + verapamil % Kill (HCT15 cells; with 5 ug/mL Verapamil): 98.4 ± 0.5% | IC50 (HCT15 cells; [3]): 0.782 nM | HCT-15 % Kill (HCT15 cells; without Verapamil): 97.1 ± 3.7% | IC50 (HCT15 cells; without Verapamil, read-out: HCT-15 IC50): 17.7 nM | HCT-15 IC50/HCT-15+Verapamil IC50 ratio (HCT15 cells; IC50 without Verapamil divided by IC50 with Verapamil): 23.7 | HCT15 IC50/HCT-15 + Verapamil IC50 (HCT15 cells; ratio of IC50 without Verapamil to IC50 with Verapamil): 23.7 ± 12.0 | IC50 (C4-2 cells [2]): 0.287 nM | C4-2 % Kill (C4-2 cells [2]): 93.7% and 93.7 ± 2.5%

C#CCCCON(C(=O)[C@@H](NC(=O)[C@H]1CCCCN1C)[C@@H](C)CC)[C@H](C[C@@H](OC(C)=O)c1nc(C(=O)N[C@@H](Cc2ccc(N)cc2)CC(C)(C)C(=O)O)cs1)C(C)C [Ve, (4S)-4-({2-[(1R,3R)-1-(Acetyloxy)-4-methyl-3-[(2S,3S)-3-methyl-2-{[(2R)-1-methylpiperidin-2-yl]formamido}-N-(pent-4-yn-1-yloxy)pentanamido]pentyl]-1,3-thiazol-4-yl}formamido)-5-(4-aminophenyl)-2,2-dimethylpentanoic acid]
H69AR % Kill 72 h (H69AR cells; 72 h incubation): 96.6% | H69AR % Kill 144 h (H69AR cells; 144 h incubation): 99.5% | IC50 (H69AR cells; Homo sapiens, 72 h incubation, read-out: H69AR IC50 72 h): 0.331 nM | IC50 (H69AR cells; Homo sapiens, 144 h incubation, read-out: H69AR IC50 144 h): 0.559 nM | HCT-15 % Kill 72 h (HCT-15 cells; 72 h incubation): 97.5% | HCT-15 % Kill 144 h (HCT-15 cells; 144 h incubation): 99.7% | IC50 (HCT-15 cells; Homo sapiens, 72 h incubation, read-out: HCT-15 IC50 72 h): 0.0922 nM | IC50 (HCT-15 cells; Homo sapiens, 144 h incubation, read-out: HCT-15 IC50 144 h): 0.158 nM | IC50 (HEK293 cells; Homo sapiens, HEK293, 120 h): 0.103 nM | HEK293 % Kill (HEK293 cells; [4]): 88.5% | IC50 (T47D cells; Homo sapiens, T47D, 120 h): 0.0731 nM | T47D % Kill (T47D cells; [4]): 69.8% | IC50 (C4-2 cells [1]; Homo sapiens): 0.063 nM | % kill (C4-2 cells [1]): 99% | IC50 (HCT15/PRLR cells; with Verapamil, read-out: IC50 (nM) on HCT15/PRLR w/ Verapamil): 0.033 nM | IC50 (HCT15/PRLR cells; without Verapamil, read-out: IC50 (nM) on HCT15/PRLR w/o Verapamil): 0.203 nM | % kill on HCT15/PRLR w/ Verapamil (HCT15/PRLR cells; with Verapamil, at maximum concentration tested): 99% | % kill on HCT15/PRLR w/o Verapamil (HCT15/PRLR cells; without Verapamil, at maximum concentration tested): 99% | MES-SA/MX2 % Kill 72 h (MES-SA/MX2 cells; 72 h incubation): 98.9% | MES-SA/MX2 % Kill 144 h (MES-SA/MX2 cells; 144 h incubation): 100% | IC50 (MES-SA/MX2 cells; Homo sapiens, 72 h incubation, read-out: MES-SA/MX2 IC50 72 h): 0.52 nM | IC50 (MES-SA/MX2 cells; Homo sapiens, 144 h incubation, read-out: MES-SA/MX2 IC50 144 h): 0.734 nM | HL60/MX2 % Kill 72 h (HL60/MX2 cells; 72 h incubation): 98.3% | HL60/MX2 % Kill 144 h (HL60/MX2 cells; 144 h incubation): 100% | IC50 (HL60/MX2 cells; Homo sapiens, 72 h incubation, read-out: HL60/MX2 IC50 72 h): < 0.015 nM | IC50 (HL60/MX2 cells; Homo sapiens, 144 h incubation, read-out: HL60/MX2 IC50 144 h): < 0.015 nM | HCT-15 + verapamil % Kill (HCT15 cells; with 5 ug/mL Verapamil): 98.2 ± 1.2% | IC50 (HCT15 cells; [3]): 0.0654 nM | HCT-15 % Kill (HCT15 cells; without Verapamil): 98.6 ± 0.7% | IC50 (HCT15 cells; Homo sapiens, HCT-15, without Verapamil, read-out: HCT-15 IC50): 0.273 nM | IC50 (C4-2 cells [2]; Homo sapiens, C4-2, 120 h): < 0.047 nM | C4-2 % Kill (C4-2 cells [2]): 92.6%
